The source of these data is article PMC10495491 (Parasitology Research, 2023).

For one data set, the system named is Vero cells. The experiment in a line: Cytotoxicity test (MTT) on Vero cells. Type of data set: cell-based, African green monkey. Particulars: 24 h incubation. As for the experimental part: (§1) Vero cells were seeded at a density of 1×10^4 cells/well in 96-well plate and incubated for 24 h at 37 °C in a 5% CO2 incubator. […] A stock solution in DMSO was initially prepared then diluted 100 times with culture media to obtain the highest concentration, then it was serially diluted. Three replicates for each drug concentration were performed. Cell viability was assayed by MTT method where 20 μl of 5 mg/ml MTT (Sigma, USA) was added to each well, and the plate was incubated at 37 °C for 3 h. Then, MTT solution was removed, 100 μl DMSO was added, and the absorbance of each well was measured using a Benchmark Microplate Reader (Bio Rad). […] [2021]; Montazeri et al. [2020]). Experiments were repeated three times. Vero cell growth suppression (%) was estimated using the following equation: […]×100 using CompuSyn software (version 1) (Chou [2006]; Chou and Talaly [1977]).

The test system of the next data set is T. gondii tachyzoites. In words: Effects of sulfa drugs on intracellular Toxoplasma gondii in Vero cells (MTT). The note with it: 24 h treatment. Type of data set: cell-based, Toxoplasma gondii RH strain. As for the experimental part:
For this purpose, Vero cells were cultured in 96-well plates (1×10^4 cells/well) for 24 h in RPMI 1640 medium supplemented with 10% inactivated FBS at 37 °C and 5% CO2. Next, the cells were infected with T. gondii tachyzoites (parasite: cell ratio = 10:1). Four hours following the inoculation, the cells were washed twice with RPMI to remove any non-adherent parasites. […] Cell viability was assayed by MTT method. Twenty microliters of 5 mg/ml MTT (Sigma, USA) was added to each well and the plate was incubated at 37 °C for 3 h. Then, MTT solution was removed, 100 μl DMSO was added, and the absorbance of each well was measured using a Benchmark Microplate Reader (Bio Rad). The optical absorbance was measured at 570-nm wavelength. Growth inhibition (GI) was calculated as in the following equation: GI%=At-Ac/Ac×100
where At and Ac are the absorbance of treated cells and control, respectively. […] Selectivity index (SI) of the samples was calculated using the IC50 and the host-cell cytotoxicity profiles CC50 (SI = CC50/IC50) (Montazeri et al. [2020]) using CompuSyn software (version 1) (Chou [2006]; Chou and Talaly [1977]).

Data set [1] relates to T. gondii RH strain tachyzoites. The experiment in a line: Transmission electron microscopy of intracellular tachyzoites in Vero cells. Type of data set: cell-based, Toxoplasma gondii RH strain. The note with it: infected Vero cells treated with the IC50 of each compound for 24 h. As to the method: After confluence of Vero cells in four T-25 culture flasks, T. gondii RH strain tachyzoites, suspended in 5 ml of RPMI, and were added to each flasks in a ratio of 5:1 parasite-host cell (Diab and El-Bahy [2008]). Flasks were incubated for 2 h. After that, the cells were washed twice with culture media to remove extracellular parasites. The cells in culture flasks were incubated in 5 ml of culture media for 24 h at 37 °C in a 5% CO2 (Carvalho and De Melo [2010b]). […] For TEM (Jeol JSM-1400), trypsinization was followed by centrifugation at 2000g for 10 min, and the resulting pellet was fixed in buffered glutaraldehyde-phosphate 2.5% and stored at 4 °C until used (Shaw et al. [2002]). Then, the fixed specimens were washed thoroughly with Millonig phosphate buffer and post-fixed with buffered osmium tetroxide-phosphate. Following that, they were dehydrated in ascending concentrations of ethyl alcohol followed by embedding in epoxy resin. Finally, ultrathin sections were doubly stained with uranyl acetate and lead citrate trihydrate stains and examined under TEM (Winey et al. [2014]).

For a further data set, the system named is tachyzoites. The note with it: ref Portes et al. [2018]; cited from earlier work.
Data set [2] is described as follows: Cytotoxicity test (MTT) on Vero cells. Type of data set: cell-based, African green monkey. Particulars: African green monkey, 24 h incubation. As for the experimental part: as §1

Usually CC50 stands for the concentration that lowers cell viability or growth by half. Lower therefore signals greater toxicity to the cells. The IC50 is the point on the concentration scale where inhibition reaches its midpoint.

Take “4-(4-(hydroxymethyl)-1H-1,2,3-triazol-1-yl)-N-(pyridin-2-yl)benzenesulfonamide [3e]”: the CC50 in the data set with Vero cells was found to be 510 ± 22 nM. Also, inhibition in the data set with T. gondii tachyzoites was half-maximal at 53.3 ± 10.5 nM (IC50). For the same compound, the “Ultrastructural alterations of intracellular tachyzoites (TEM)” value in data set [1] is “large PVs containing multiple vacuolated tachyzoites without nuclei or organelles”.
Consider `Nc1ccc(S(=O)(=O)Nc2ncccn2)cc1` [Sulfadiazine, sulfadiazine], for which the “Ultrastructural alterations in tachyzoites after treatment” value in the data set with tachyzoites is given as “no significant ultrastructural alterations”. For the same compound, the CC50 at 24 h in data set [2] is 1390 ± 100 nM. The compound further yielded an IC50 in the data set with T. gondii tachyzoites (Toxoplasma gondii) of 185 ± 18.4 nM.
